Assays:
[1] = Th(IV) spectrophotometric EDTA competition titration (solution thermodynamics); conditions: for pM value (negative logarithm of the free metal concentration): Th(IV); for log β110 (cumulative stability constant) with Th(IV): 25° C., 0.1 M KCl, 5% DMSO, βmlh for mM+lL+hH ⇄ MmLlHh
Description: All spectrophotometric titrations were carried out with constant stirring and a blanket of argon flow in a jacketed cell connected to a recirculating water bath to maintain the temperature at 25° C. All solutions contained 0.1 M KCl with 5% DMSO (v/v), for consistency with titrations where DMSO was used to ensure solubility. The ligand was added as a 50 mM DMSO stock solution, and Th(IV) as a standardized 10 mM stock solution in nitric acid (79 mM). The HCl and KOH solutions were prepared by dilution of Dilut-It (J. T. Baker) concentrated solutions with degassed Millipore water containing 5% DMSO, to maintain the DMSO concentration constant throughout the titration. The 0.1 M HCl solution was standardized by titration of Tris using bromocresol green as an indicator, and the 0.1 M KOH solution was standardized by titration of KHP using phenolphthalein as an indicator. The glass electrode (Nova Analytics Pinnacle) used for the pH measurements was calibrated by adding 2.000 mL 0.1 M HCl (5% DMSO) to 50.0 mL 0.1 M KCl (5% DMSO), and titrating the solution to pH 11.6 with 0.1 M KOH (5% DMSO). The titration was analyzed using the program GLEE to refine for 8 and the slope. For low pH titrations, a strong acid calibration was performed by titrating 50.0 mL 0.1 M KCl with 5% (v/v) DMSO with 0.1 M HCl to pH 1.8. The data were analyzed in an Excel spreadsheet using the SOLVER function to refine for Σ° and the slope. Metrohm Brinkmann 665 Dosimat instruments were the automated burettes used to dispense the titrant, the pH meter was a Fisher Accumet AR 15, and the UV-Vis spectrometer a Hewlett-Packard 8452A. The computer program Labview was the interface from which all these components were orchestrated to run the titrations. A value of −14.20 was used as the pKw to account for the DMSO content.
50 mL solutions (5% DMSO) of 50 μM ligand and 20 equivalents (1 mM) each of MES, HEPES, and CHES, were titrated forward and backward between pH 1.9 and 12.7 with standardized 0.1 M KOH and 0.1 M HCl. The data points were collected at constant increments of 0.05 pH units at pH 1.9-11.5, with an equilibration time of 90-500 sec following titrant additions and a 10 min. delay between successive pH readings. Titration data above pH 11.5 was collected at constant increments of 0.10 pH units, to minimize the time at which the electrode is exposed to strongly basic conditions. All absorbance measurements used in the refinement were no more than 1.0 absorbance units. Spectra from 300-450 nm were analyzed (simultaneously) in the program pHAb. Titrations for constants reported with a standard deviation were performed in triplicate (the standard deviation is between individually refined values for each titration).
50 mL solutions of 50 μM ligand, 50 μM Th(IV), and 500 μM EDTA (Sigma Aldrich) or DTPA (Pharm-Eco) were titrated forward and backward with standardized 0.1 M KOH and 0.1 M HCl. The data points were collected at constant increments of 0.05 pH units, with an equilibration time of 90-500 sec following titrant additions and a 20-30 min delay between successive pH readings. All absorbance measurements used in the refinement were no more than 1.1 absorbance units. Spectra from 300-450 nm were analyzed (simultaneously) in the program pHAb. The following values for the log β for the formation of Th hydroxides were included in the refinement: [ThOH]^3+, −2.5; [Th(OH)2]^2+, −6.2; Th(OH)4, −17.4; [Th2(OH)2]^6+, −5.9; [Th2(OH)3]^5+, −6.8; [Th4(OH)8]^8+, −20.4; [Th4(OH)12]^4+, −26.6; [Th4(OH)14]^2+, −36.8; [Th4(OH)15]^+, −36.8. The following stability constants for Th with EDTA (DTPA) were also included: log β011, 10.17 (10.45); log β012, 16.28 (18.98); log β013, 18.96 (23.26); log β014, 22.46 (25.91); log β015, 22.46 (27.73); log β110, 23.2 (28.78); log β111, 25.18 (30.94). Spectra of the free ligand, refined from the ligand titrations, were set constant in the refinement as well.

[2] = cited from earlier work; for Log K1 with thorium(IV): ligands of increasing denticity; for log β110 with Th: literature constant used for comparison and in the refinement; for log β111 with Th: protonated 1:1 Th complex, constant included in the refinement
[3] = cited from earlier work; for log β011: m=0, l=1, h=1 (ligand protonation), printed among stability constants for Th; for log β012: m=0, l=1, h=2 (ligand protonation); for log β013: m=0, l=1, h=3 (ligand protonation); for log β014: m=0, l=1, h=4 (ligand protonation); for log β015: m=0, l=1, h=5 (ligand protonation)
[4] = UV-Vis dye (arsenazo III) displacement kinetic experiments; format: binding; conditions: 100 mM HEPES pH 7.4, 100 mM KCl, 25° C., qualitative
Description: Spectra were acquired on an Hewlett-Packard 8453 spectrometer at 25° C. The temperature was controlled by a recirculating water bath connected to a jacketed cell holder. Samples were measured in small volume (50 μL) quartz cuvettes with 1 cm path lengths. Solutions were buffered with 100 mM HEPES at pH 7.4 (at 25° C.) and 100 mM KCl. Complexation of the thorium and dye was performed by combining aqueous stock solutions of standardized Th^4+ in nitric acid (77.9 mM HNO3, pH 1.4, 1 mM) and purified dye (1 mM). The solution was let sit on the bench at room temperature for 30 min, diluted in buffer, and let sit at room temperature for an hour. The absorbance was monitored starting from the addition of ligand, as a solution of DMSO ligand stock solution (5 mM) and buffer (equilibrated for 15 min. beforehand). The A vs. t plots were fit with a first-order decay equation in Origin at wavelengths corresponding to the appearance of free dye (550, 560 nm) and the disappearance of thorium-dye complex (614, 669, 700 nm). The reaction with DOTA was refluxed (and stirred with a magnetic stir bar) and performed on a 3 mL scale (instead of 100 μL) in a 10 mL round-bottom flask, placed in an oil bath, and fitted with a reflux condenser. Aliquots were taken periodically and transferred to a cuvette for UV-Vis spectra acquisition. […]

[5] = Stopped-flow UV-Vis kinetics of direct association with Th(IV); format: binding; conditions: 5 μM Th, 10-25 equivalents of ligand, 100 mM HEPES (pH 7.4), 5% DMSO; average of four experiments
Description: The stopped-flow kinetic experiments were performed using a stopped-flow apparatus equipped with an OLis rapid-scanning monochromator 1000 and a 75 W Xe lamp. Upon electronic activation, the apparatus (powered with a gas source, in this case, Ar) mixes 100 μL of each solution in the two syringes into a mixing chamber. This mixture is flowed into a separate chamber, where the flow is stopped and UV spectra are taken. One syringe contained 10 μM Th(IV) in 77.9 mM HNO3 (pH 1.4), while the other held a solution of 50-300 μM ligand, in 200 mM HEPES (pH 8.3) and 10% DMSO. The 1:1 mixture of these solutions was 5 μM Th, 25-150 μM ligand, 100 mM HEPES (pH 7.4). […] The data were analyzed using the program SpecFit to simultaneously use the absorbance at all of the wavelengths to obtain a second-order rate constant.
The kinetics of the direct association of L with Th(IV) have been elusive thus far due to the presence of various species in solution (as the metal ion can hydrolyze to form various species such as Th(OH)^3+, Th(OH)2^2+, Th4(OH)12^4+, and Th(OH)4, and L has many protonation states) and the small spectral change upon complexation. […] However, UV-Vis kinetics experiments using a stopped-flow apparatus and more intense light source enabled a direct and quantitative assessment of the complexation. […]

[6] = 1 μM metal, 10 μM ligand, pH 7.4

CNC(=O)c1ccc(C(=O)NCCCN(CCCCN(CCCNC(=O)c2ccc(C(=O)NC)c(O)c2O)C(=O)c2ccc(C(=O)NC)c(O)c2O)C(=O)c2ccc(C(=O)NC)c(O)c2O)c(O)c1O [3,4,3-LiMeTAM]
pM value (negative logarithm of the free metal concentration) [1, 6]: 39.2 | log β110 (cumulative stability constant) with Th(IV) [1]: 56.1

CC(=O)CC(C)=O [Acac]
Log K1 with thorium(IV) [2]: 7.85

O=C(O)CN(CCN(CC(=O)O)CC(=O)O)CCN(CC(=O)O)CC(=O)O [DTPA]
log β011 [3]: 10.45 | log β012 [3]: 18.98 | log β013 [3]: 23.26 | log β014 [3]: 25.91 | log β015 [3]: 27.73 | Log K1 with thorium(IV) [2]: 30.34 | log β110 with Th [2]: 28.78 | log β111 with Th [2]: 30.94

O=C(O)CN(CCN(CC(=O)O)CC(=O)O)CC(=O)O [EDTA]
log β011 [3]: 10.17 | log β012 [3]: 16.28 | log β013 [3]: 18.96 | log β014 [3]: 22.46 | log β015 [3]: 22.46 | Log K1 with thorium(IV) [2]: 25.3 | log β110 with Th [2]: 23.2 | log β111 with Th [2]: 25.18

O=C(O)CN(CCO)CCN(CC(=O)O)CC(=O)O [HEDTA]
Log K1 with thorium(IV) [2]: 18.5

O=C(O)CN(CC(=O)O)CC(=O)O [NTA]
Log K1 with thorium(IV) [2]: 16.9

O=C(O)CN(CCN(CCN(CC(=O)O)CC(=O)O)CC(=O)O)CCN(CC(=O)O)CC(=O)O [TTHA]
Log K1 with thorium(IV) [2]: 31.9

COCCNC(=O)c1ccc(C(=O)NCCN2CCNC(=O)c3ccc(c(O)c3O)C(=O)NCCN(CCNC(=O)c3ccc(C(=O)NCCOC)c(O)c3O)CCNC(=O)c3ccc(c(O)c3O)C(=O)NCC2)c(O)c1O [phi(2,2)moeTAM, Tren2TAM2[TAM(OMeEtN)]2]
rate of Th(IV) complexation greater than those of DOTA and DTPA [4]: 1-2 orders of magnitudes | second-order rate constant of complexation of Th(IV) [5]: 1.6(3)×10^4 M^−1 s^−1 | pM value (negative logarithm of the free metal concentration) [1, 6]: 40.2 | pM greater than the pM value for DTPA ([1]; 1 μM metal, 10 μM ligand, pH 7.4, relative to DTPA): 14 orders of magnitude | pM greater than the pM value for ethyl-TAM ([1]; 1 μM metal, 10 μM ligand, pH 7.4, relative to ethyl-TAM): 21 orders of magnitude | log β110 (cumulative stability constant) with Th(IV) [1]: 53.7(5) | log β110 greater than that of DTPA ([1]; relative to DTPA (28.78)): over 24 orders of magnitude

Reference: US9439984B2, “Macrocycles” (priority 2012, dated 2016)
